# In ChEMBL document CHEMBL1126961, “The design and synthesis of kappa opioid ligands based on a binding model for kappa agonists” (Bioorg Med Chem Lett, 1993):
# What was measured:
# [1] = molecular target: T1, Kappa-type opioid receptor (Homo sapiens, UniProt P41145); assay: Tested in vitro for binding affinity against Opioid receptor kappa 1
# Mu-type opioid receptor = Mu-type opioid receptor (Homo sapiens, UniProt P35372); assay: Tested in vitro for binding affinity against mu opioid receptor
# [2] = molecular target: T1, Kappa-type opioid receptor; assay: Ratio of binding affinity against kappa opioid receptor to binding affinity against mu opioid receptor
# T1 sequence (P41145 whole entry): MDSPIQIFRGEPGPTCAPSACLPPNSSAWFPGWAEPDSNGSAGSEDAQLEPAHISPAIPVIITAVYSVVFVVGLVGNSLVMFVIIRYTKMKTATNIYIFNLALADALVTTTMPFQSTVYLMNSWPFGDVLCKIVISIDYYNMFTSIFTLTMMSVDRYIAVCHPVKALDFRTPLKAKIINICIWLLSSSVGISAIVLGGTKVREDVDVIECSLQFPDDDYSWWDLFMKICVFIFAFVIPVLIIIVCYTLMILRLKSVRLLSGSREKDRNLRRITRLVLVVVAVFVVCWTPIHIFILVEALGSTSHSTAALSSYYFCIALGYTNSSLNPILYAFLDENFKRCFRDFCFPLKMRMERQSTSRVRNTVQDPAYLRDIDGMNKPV
# Sequence of Mu-type opioid receptor (P35372 whole entry): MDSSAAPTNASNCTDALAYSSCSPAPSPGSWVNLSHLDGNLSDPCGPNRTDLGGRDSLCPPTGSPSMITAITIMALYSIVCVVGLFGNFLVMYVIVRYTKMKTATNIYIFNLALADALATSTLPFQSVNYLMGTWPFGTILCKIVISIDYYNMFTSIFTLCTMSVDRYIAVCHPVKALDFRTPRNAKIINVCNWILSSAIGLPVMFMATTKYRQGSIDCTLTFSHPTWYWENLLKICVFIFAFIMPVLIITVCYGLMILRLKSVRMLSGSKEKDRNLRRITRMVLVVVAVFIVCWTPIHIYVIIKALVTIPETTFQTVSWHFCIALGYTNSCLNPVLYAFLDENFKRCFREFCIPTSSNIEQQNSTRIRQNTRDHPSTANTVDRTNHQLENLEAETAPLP
Structure (SMILES),Ki [1] [nM],Ki (Mu-type opioid receptor) [nM],Ratio [2]
CN(C(=O)Cc1c(OCCN2CCCC2)ccc2ccccc12)C1CCCCC1,160,> 10000,> 60
O=C(Cc1cccc2occc12)NCC12CCCN1CCC2,940,3350,3.5
CC[C@]12CCN(CC3CC3)[C@H](C(=O)c3ccc(O)cc31)[C@@H]2C,,1.02,
O=C1Cc2cccc(c2)OCCCCNCCN1,> 10000,> 10000,
